# Experimental data published in patent US10721937B1, “Preservative systems and compositions and methods incorporating same” (CODEX BEAUTY CORPORATION, priority 2019, dated 2020).
# Tested on: skin of human volunteers
# Assay: Human Repeat Insult Patch Test (HRIPT), skin irritation and sensitization
# Assay type: in vivo
# Conditions: positive control, study of Example 28, 51 subjects completing
# Text: Prior to utilizing in-vivo efficacy testing, however, it must first be determined that application of the product onto the skin of human volunteers will not cause them to experience an allergic reaction or some form of painful irritation. This is done by performing what is known as a Human Repeat Insult Patch Test (HRIPT). This is an internationally recognized test used to determine the potential for irritation, sensitization, and allergic reaction potential of a product. In view of the growing number of exotic ingredients used in skin care formulations, coupled with the increasingly complex and sophisticated chemical composition of the formulas, the risk of individuals experiencing irritation and allergic reactions because of their use has increased substantially. […] Any allergic reactions experienced by the test subject will be observed, recorded, and evaluated by a dermatologist to confirm, or not, the safety of the product. […]
# Each HRIPT included about 50 subjects. In addition to demographic data collected for each subject, a Fitzpatrick Skin Type was also determined. […]
# This procedure was repeated until a series of 9 consecutive, 24-hour exposures had been made 3 times a week for three 3 consecutive weeks. Prior to each reapplication, the test sites evaluated by trained laboratory personnel. […]
smiles,measurement,value
"CCCCCCCCCCCCOS(=O)(=O)[O-].[Na+] [2.0% Sodium Lauryl Sulfate Solution, Sodium Lauryl Sulfate]",number of subjects with a Grade 1 reaction in HRIPT,4 subjects
same,number of subjects with a Grade 3 reaction in HRIPT,one
